{"source": "BigSolDB 2.1", "data": [{"smiles": "CO[C@H]1/C=C/O[C@@]2(C)Oc3c(C)c(O)c4c(O)c(c(/C=N/N5CCN(C)CC5)c(O)c4c3C2=O)NC(=O)/C(C)=C\\C=C\\[C@H](C)[C@H](O)[C@@H](C)[C@@H](O)[C@@H](C)[C@H](OC(C)=O)[C@@H]1C", "values": [{"measurement": "solubility (mole fraction)", "setting": "in ethanol, 298.2 K", "value": 0.00011}, {"measurement": "solubility (mole fraction)", "setting": "in ethanol, 303.2 K", "value": 0.00016}, {"measurement": "solubility (mole fraction)", "setting": "in ethanol, 308.2 K", "value": 0.00023}, {"measurement": "solubility (mole fraction)", "setting": "in ethanol, 313.2 K", "value": 0.00036}, {"measurement": "solubility (mole fraction)", "setting": "in ethanol, 318.2 K", "value": 0.00053}, {"measurement": "solubility (mole fraction)", "setting": "in ethyl acetate, 298.2 K", "value": 0.00054}, {"measurement": "solubility (mole fraction)", "setting": "in ethyl acetate, 303.2 K", "value": 0.00074}, {"measurement": "solubility (mole fraction)", "setting": "in ethyl acetate, 308.2 K", "value": 0.00088}, {"measurement": "solubility (mole fraction)", "setting": "in ethyl acetate, 313.2 K", "value": 0.0091}, {"measurement": "solubility (mole fraction)", "setting": "in ethyl acetate, 318.2 K", "value": 0.013}, {"measurement": "solubility (mole fraction)", "setting": "in eugenol, 298.2 K", "value": 0.00028}, {"measurement": "solubility (mole fraction)", "setting": "in eugenol, 303.2 K", "value": 0.00031}, {"measurement": "solubility (mole fraction)", "setting": "in eugenol, 308.2 K", "value": 0.00039}, {"measurement": "solubility (mole fraction)", "setting": "in eugenol, 313.2 K", "value": 0.00043}, {"measurement": "solubility (mole fraction)", "setting": "in eugenol, 318.2 K", "value": 0.00059}, {"measurement": "solubility (mole fraction)", "setting": "in isopropanol, 298.2 K", "value": 0.00073}, {"measurement": "solubility (mole fraction)", "setting": "in isopropanol, 303.2 K", "value": 0.00089}, {"measurement": "solubility (mole fraction)", "setting": "in isopropanol, 313.2 K", "value": 0.0016}, {"measurement": "solubility (mole fraction)", "setting": "in isopropanol, 318.2 K", "value": 0.0017}, {"measurement": "solubility (mole fraction)", "setting": "in isopropyl myristate, 298.2 K", "value": 0.0031}, {"measurement": "solubility (mole fraction)", "setting": "in isopropyl myristate, 303.2 K", "value": 0.0038}, {"measurement": "solubility (mole fraction)", "setting": "in isopropyl myristate, 308.2 K", "value": 0.0043}, {"measurement": "solubility (mole fraction)", "setting": "in isopropyl myristate, 313.2 K", "value": 0.0047}, {"measurement": "solubility (mole fraction)", "setting": "in limonene, 298.2 K", "value": 0.0023}, {"measurement": "solubility (mole fraction)", "setting": "in limonene, 303.2 K", "value": 0.0036}, {"measurement": "solubility (mole fraction)", "setting": "in limonene, 308.2 K", "value": 0.0052}, {"measurement": "solubility (mole fraction)", "setting": "in limonene, 313.2 K", "value": 0.0085}, {"measurement": "solubility (mole fraction)", "setting": "in sec-butanol, 298.2 K", "value": 0.00048}, {"measurement": "solubility (mole fraction)", "setting": "in sec-butanol, 303.2 K", "value": 0.00051}, {"measurement": "solubility (mole fraction)", "setting": "in sec-butanol, 308.2 K", "value": 0.00059}, {"measurement": "solubility (mole fraction)", "setting": "in sec-butanol, 313.2 K", "value": 0.00076}, {"measurement": "solubility (mole fraction)", "setting": "in span 80, 298.2 K", "value": 0.00058}, {"measurement": "solubility (mole fraction)", "setting": "in span 80, 303.2 K", "value": 0.00064}, {"measurement": "solubility (mole fraction)", "setting": "in span 80, 308.2 K", "value": 0.00079}, {"measurement": "solubility (mole fraction)", "setting": "in span 80, 313.2 K", "value": 0.00085}, {"measurement": "solubility (mole fraction)", "setting": "in span 80, 318.2 K", "value": 0.00099}, {"measurement": "solubility (mole fraction)", "setting": "in transcutol, 298.2 K", "value": 0.00097}, {"measurement": "solubility (mole fraction)", "setting": "in transcutol, 303.2 K", "value": 0.0013}, {"measurement": "solubility (mole fraction)", "setting": "in transcutol, 308.2 K", "value": 0.0025}, {"measurement": "solubility (mole fraction)", "setting": "in transcutol, 313.2 K", "value": 0.0049}, {"measurement": "solubility (mole fraction)", "setting": "in transcutol, 318.2 K", "value": 0.018}, {"measurement": "solubility (mole fraction)", "setting": "in triacetin, 298.2 K", "value": 0.00049}, {"measurement": "solubility (mole fraction)", "setting": "in triacetin, 303.2 K", "value": 0.00052}, {"measurement": "solubility (mole fraction)", "setting": "in triacetin, 308.2 K", "value": 0.00072}, {"measurement": "solubility (mole fraction)", "setting": "in triacetin, 313.2 K", "value": 0.00073}, {"measurement": "solubility (mole fraction)", "setting": "in triacetin, 318.2 K", "value": 0.00088}]}]}
